Data on 2 molecules can be found in patent US11771765B2, “Light augmented treatment method” (The Procter & Gamble Company, priority 2019, dated 2023).

SMILES strings stand for the structures.

The test system of assay [1] is M. furfur. The assay is described as follows: Dependence of photosensitivity on wavelength, M. furfur (Table 5). Type of assay: cell-based, Malassezia furfur. Details: overnight growth in mDixon: unit not given here. The following applies: for overnight growth in mDixon: N=1. The procedure: Dependence of photosensitivity on wavelength. A fresh overnight culture is diluted 100 fold and grown for three hours to an OD of 0.16. M. furfur is treated at the indicated dose and cultured another three hours. Cells are harvested by centrifugation, suspended in PBS, and exposed to an LED array at the indicated wavelength. The illumination is for ten minutes with 1200 foot candles. The cultures are then allowed to grow overnight in mDixon. N=1.

The test system of assay [2] is M. furfur. The assay is described as follows: M. furfur growth after 20 min treatment, then 409 nm light or dark (Table 2). Type of assay: cell-based, Malassezia furfur. The method, then: Cells are grown in the medium of choice, generally one requiring respiration. In the case of Malassezia furfur that medium is modified Dixon medium (mDixon) (per one liter: 36 g malt extract (Difco 0186-17), 20 g ox bile (provided by American Laboratories, Inc., of Omaha, Nebraska, as Lot No. 03130792), 10 ml Tween 40 (Aldrich 27435-6), 6 g peptone (Difco 0118-17), 2 ml oleic acid (Baker 2114-01), and 2 ml glycerol (Sigma G-7893)). [Candida and YPG, Saccharomyces and YNB (without amino acids) to which we added 40 μg/ml each of uracil, histidine, and methionine plus 130 μg/ml leucine and 2% ethanol and 0.1% yeast extract.] Conventional medium may also be used for other microbials. Starting cultures are prepared by diluting a fresh overnight culture that is out of log phase 1:100 and incubating with shaking at 31° C. in a 250 mL shake flask (Corning, 431144) with 20 mL medium shaking at 200-250 rpm for about 3 hours to ensure the cells had returned to growth phase. At this time, the test agent is added to the flasks to afford the final concentration for testing. The cells are cultured for 1 hour with the test agent. At this time, the cells typically have an OD at 600 nm in the range of 0.25 to 0.8. Generally, we isolate 2.5 OD*mLs of cells calculated as desired OD*mLs divided by the OD600 of the cells. These media samples are centrifuged (Beckman Coulter Allegra™ 6KR centrifuge) 10 minutes at RT at 3200 rpm to pellet the cells. The supernatant is poured off and the tubes are set upside down on a folded paper towel to drain off the remains of media. Two and one half milliliters of PBS (Gibco, pH 7.4, without magnesium chloride or calcium chloride, 14190-144) is added and the cells resuspended. One mL of cells is transferred to each of two 12-well plates (Falcon, polystyrene, 353043). One plate is stored in the dark and the other is exposed to the light with the plate cover on the plate. […] When the light exposure is completed, the samples are mixed by slowly vortexing or pipetting and 0.65 mL of each sample is transferred to 13 mL of medium for overnight growth at 31° C. with shaking. The following morning, typically 18 hours later, the ODs at 600 nm are determined. Successful materials are those that show at least a 50% reduction in growth after light exposure relative to a dark sample.
M. furfur is incubated for twenty minutes with the indicated treatment. A cell pellet is collected after centrifugation so that most of the anti-fungal materials is expected to have been removed. The cell pellet is suspended in PBS and either treated with light (409 nm, 1100 foot candles) for ten minutes or stored in the dark for ten minutes. Samples are then diluted into mDixon with subsequent growth indicated by OD 600 nm.

Another assay has as its system protoporphyrin IX (PPIX). Briefly: Protoporphyrin IX levels in treated M. furfur cells by HPLC. The following applies: increasing concentrations. The class given is cell-based. The text has this: PPIX absorb light in the 400 nm range, and when light is absorbed, PPIX transitions to an excited triplet state that can react with triplet oxygen to produce singlet oxygen or the excited porphyrin can generate ROS through single electron processes. These reactive species result in a loss of cell viability.
M. furfur cells are exposed to other antifungals that are not considered chelators (i.e. selenium sulfide (SeSx), Sulfur, Climbazole, and Terbinafine). After treatment, cells are then exposed to light, or not exposed to light. Both OD are measured to measure growth and PPIX levels are measured.

[3] abbreviates: LED arrays of 520 (green) and 595 (yellow) light.
[4] abbreviates: 8 ppm 20 min, Light 409 nm, 1100 foot candles, 10 min.
Where [5] appears, read: 16 ppm 20 min, Light 409 nm, 1100 foot candles, 10 min.
Setting [6] is: 24 ppm 20 min, Light 409 nm, 1100 foot candles, 10 min.
The mark [7] stands for this setting: 32 ppm 20 min, Light 409 nm, 1100 foot candles, 10 min.
Where [8] appears, read: prior treatment, with the addition of light.

In the case of `[O-]n1ccccc1=S.[O-]n1ccccc1=S.[Zn+2]` [ZPT, zinc salt of 1-hydroxy-2-pyridinethione], the “overnight growth in mDixon” value with M. furfur [1] (6 ppm 3 h, 409 nm LED array, 10 min, 1200 foot candles) came to 0.354; with M. furfur [1] (6 ppm 3 h, 520 nm LED array, 10 min, 1200 foot candles), 3.37; in the assay on M. furfur [1] (6 ppm 3 h, 595 nm LED array, 10 min, 1200 foot candles), 3.75; with M. furfur [1] (6 ppm 3 h, Dark) it was 3.31. Also, the “photosensitivity” value in the assay on M. furfur [1] (LED array of 409 nm light) is “observed photosensitivity”; in the assay with M. furfur [1] (setting [3]), “not with LED arrays of 520 (green) and 595 (yellow) light”. The “growth, OD 600 nm” value was 10.14 in the assay with M. furfur [2] (4 ppm 20 min, Dark 10 min); 4.86 in the assay on M. furfur [2] (4 ppm 20 min, Light 409 nm, 1100 foot candles, 10 min); 9.02 in the assay on M. furfur [2] (8 ppm 20 min, Dark 10 min); 3.16 with M. furfur [2] (setting [4]); 5.72 with M. furfur [2] (16 ppm 20 min, Dark 10 min); 0.24 in the assay on M. furfur [2] (setting [5]). Further, the “growth, OD 600 nm” value with M. furfur [2] (24 ppm 20 min, Dark 10 min) stood at 5.54; in the assay on M. furfur [2] (setting [6]) it was 2.41; with M. furfur [2] (32 ppm 20 min, Dark 10 min), 2.61; in the assay on M. furfur [2] (setting [7]), 1.65. Moreover, the “growth inhibition” value in the assay with M. furfur [2] (16 to 32 ppm, without light exposure) was “some growth inhibition”; in the assay with M. furfur [2] (setting [8]), “considerable growth inhibition”. Moreover, the “PPIX levels” value with protoporphyrin IX (PPIX) is listed as “increased levels of PPIX”.

For the molecule `Cc1cc(CC(C)CC(C)(C)C)n(O)c(=O)c1.NCCO` (stereo not shown) [Piroctone Olamine, 1-Hydroxy-4-methyl-6-(2,4,4-trimethylpentyl)-2-pyridone monoethanolamine salt], the “overnight growth in mDixon” value with M. furfur [1] (8 ppm 3 h, 409 nm LED array, 10 min, 1200 foot candles) is recorded as 0.891; in the assay with M. furfur [1] (8 ppm 3 h, 520 nm LED array, 10 min, 1200 foot candles), 4.34; in the assay on M. furfur [1] (8 ppm 3 h, 595 nm LED array, 10 min, 1200 foot candles), 5.59; with M. furfur [1] (8 ppm 3 h, Dark), 4.36; in the assay on M. furfur [1] (12 ppm 3 h, 409 nm LED array, 10 min, 1200 foot candles), 0.068; with M. furfur [1] (12 ppm 3 h, 520 nm LED array, 10 min, 1200 foot candles), 3.76. For the same molecule, the “overnight growth in mDixon” value in the assay on M. furfur [1] (12 ppm 3 h, 595 nm LED array, 10 min, 1200 foot candles) is 4.22; in the assay on M. furfur [1] (12 ppm 3 h, Dark), 2.79. For the same molecule, the “photosensitivity” value was “observed photosensitivity” in the assay on M. furfur [1] (LED array of 409 nm light); “not with LED arrays of 520 (green) and 595 (yellow) light” in the assay on M. furfur [1] (setting [3]). For the same molecule, the “growth, OD 600 nm” value in the assay with M. furfur [2] (8 ppm 20 min, Dark 10 min) was determined as 7.82; in the assay with M. furfur [2] (setting [4]), 7.35; in the assay on M. furfur [2] (16 ppm 20 min, Dark 10 min), 7.90; with M. furfur [2] (setting [5]), 0.07; in the assay on M. furfur [2] (24 ppm 20 min, Dark 10 min) it was 7.07; in the assay with M. furfur [2] (setting [6]), 0.03. Besides, the “growth, OD 600 nm” value in the assay with M. furfur [2] (32 ppm 20 min, Dark 10 min) is on record as 6.76; with M. furfur [2] (setting [7]) it was 0.02; in the assay with M. furfur [2] (48 ppm 20 min, Dark 10 min), 7.21; in the assay on M. furfur [2] (48 ppm 20 min, Light 409 nm, 1100 foot candles, 10 min), 0.03; in the assay on M. furfur [2] (64 ppm 20 min, Dark 10 min), 7.23; in the assay on M. furfur [2] (64 ppm 20 min, Light 409 nm, 1100 foot candles, 10 min) it was 0.02. In addition, the “growth inhibition” value in the assay on M. furfur [2] (setting [8]) is recorded as “considerable growth inhibition”. The “PPIX levels” value in the assay with protoporphyrin IX (PPIX) is on record as “increased levels of PPIX”.
